According to patent US20240124528A1, “ANTAGONIST OF INTERLEUKIN-17B RECEPTOR (IL-17RB) AND USE THEREOF” (Academia Sinica, priority 2020, published 2024):
Entries after “also recorded” stand apart in the source; their conditions may differ.

Legend:
Type in all cases: cell-based, human
[1] = system: pancreatic cancer cells (AsPC1 and BxPC3) and breast cancer cells (MB361 and MB468); assay: Invasion assay with CEP-1347
Method: (§1) FIGS. 15A to 15D include charts showing that CEP-1347 inhibits IL-17RB Y447 phosphorylation, ERK1/2 phosphorylation, and aggressiveness of both pancreatic and breast cancer cells. Pancreatic cancer cells (AsPC1 and BxPC3) and breast cancer cells (MB361 and MB468) were transduced with lentiviral shLacZ (control) and lentiviral shMLK4, separately. In comparison to MLK4-knockdown cells, shLacZ-transduced cancer cells were pretreated with CEP-1347 (200 nM), a non-selective inhibitor of MLKs, before adding 50 ng/ml rIL-17B in serum-free conditions for 30 mins. The cell lysates were immunoblotted directly with the indicated antibodies (FIG. 15A). The same cells were measured by RT-qPCR for the cytokine gene expression (n=3) (FIG. 15B), for SACF assay (n=4) (FIG. 15C), and for invasion assay (n=4) (FIG. 15D). All the data are mean±s.d. *P<0.05, **P<0.01 by two-tailed Student's t-test.
For invasion assay, about 10^4 cells were seeded in the top chamber with Matrigel-coated membrane (24-well BD Falcon HTS Fluoro Block insert; pore size, 8 μm; BD Biosciences) in serum-free media containing rIL-17B, DMSO, or CEP-1347. Medium supplemented with 10% serum was used as a chemoattractant in the lower chamber. After 24- or 48 hrs incubation, the invading cells were fixed with methanol, stained with 4,6-diamidino-2-phenylindole (DAPI) and counted by fluorescence microscopy.

[2] = system: pancreatic cancer cells (AsPC1 and BxPC3) and breast cancer cells (MB361 and MB468); assay: SACF assay with CEP-1347
Method: as §1
Soft agar colony formation assay was performed as described (7). Briefly, 250010000 cells were seeded in a layer of 0.35% agar/complete growth medium over a layer of 0.5% agar/complete growth medium in a 12-well plate. Cell medium containing the indicated concentration of rIL-17B (R&D), DMSO (Sigma-Aldrich), or CEP-1347 (Tocris Bioscience) was replenished every three days. […] Crystal violet-stained colonies greater than 50 μm in size were counted and analyzed objectively by light microscopy.

[3] = system: MLKs; assay: Immunoblotting of IL-17B-induced phosphorylation after CEP-1347 pretreatment; details: CEP-1347 200 nM pretreatment, then 50 ng/ml rIL-17B 30 mins; AsPC1, BxPC3, MB361, MB468
Method: as §1
Immunoblotting analysis was performed after proteins were separated by gradient SDS-PAGE (HR gradient gel solution, TFUGG420, TOOLS) and transferred to PVDF membrane, with overnight incubation with diluted primary antibody followed by diluted horseradish peroxidase-conjugated anti-rabbit, anti-mouse or anti-goat antibody (Jackson ImmunoResearch) as described (48-50). […] Optical density was determined using the National Institutes of Health ImageJ program.

[4] = system: pancreatic cancer cells (AsPC1 and BxPC3) and breast cancer cells (MB361 and MB468); assay: RT-qPCR of cytokine gene expression after CEP-1347; details: CEP-1347 200 nM
Method: as §1, with “All the data are mean±s.d. *P<0.05, **P<0.01 by two-tailed Student's t-test.” left out
Total RNA from cultured cells and tumor tissue was isolated using Trizol reagent (Thermo Fisher Scientific) and reversely transcribed with Transcriptor First Strand cDNA Synthesis Kit (Roche Life Science) for gene expression analysis according to manufacturer's instructions. Quantitative real-time RT-PCR assay was run on the StepOnePlus system (Applied Biosystems) using KAPA SYBR FAST qPCR Kit (Kapa Biosystems) according to manufacturer's instructions, and data was analyzed by StepOne Software v2.2.2. β-actin mRNA was used as an internal control. […]

With CCSCc1ccc2c(c1)c1c3c(c4c5cc(CSCC)ccc5n5c4c1n2[C@H]1C[C@](O)(C(=O)OC)[C@]5(C)O1)CNC3=O [CEP-1347] the “invasion properties of the cancer cells” value [1] was “abrogated”, the “aggressiveness of both pancreatic and breast cancer cells” value ([2]; CEP-1347 200 nM, SACF and invasion assays) was “inhibits” and the colony formation ([2]; CEP-1347, AsPC1, BxPC3, MB361, MB468) was “abrogated”. For the same compound, the ERK1/2 phosphorylation [3] was “abrogated; also recorded: inhibits”, the “IL-17RB (Y447) phosphorylation” value [3] was “abrogated; also recorded: inhibits” and the cytokine gene expressions [4] was “abrogated”.
